Experimental data from patent publication US9132086B2, “Compositions for and methods of controlling olfactory responses to odorants” (Auburn University, priority 2006, dated 2015).

What was measured:
rat olfactory epithelium = test: EOG recording of rat olfactory epithelium, odorant puffs; assay type: cell-based; conditions: FIG. 7 chart 720; external perfusion of ZnCl2 solutions, same range of concentrations as nanoparticles (10^−9-10^−15 M)
Source text: The averaged activity of the receptor neuron to an odor can be measured by an electroolfactogram (EOG). In this process, fragments of olfactory epithelaia, either cultured or dissected from natural sources (e.g., mice and dogs), are placed in an EOG recording chamber with a buffer solution. The epithelial cilia are exposed. Electrodes are connected to the tissues through a patch-clamp amplifier to detect electrical activity of the olfactory epithelia. In general air puff or plums of an odorant mixture are applied over the olfactory epithelia through a small pipet or capillary, before and after being treated with the metal composition, described in detail below. The amplitude of the electrical signal to the amount of the odorant is plotted over time after the electrical signal is amplified and filtered.
FIG. 3C is a graph 370 showing amplitude plots 371, 373, 375 and 377 of Electroolfactogram recordings. In this case rat olfactory tissue was placed in an EOG recording chamber with a buffer solution and connected to electrodes through an amplifier. Air puffs or plumes of an odorant mixture are applied over the rat olfactory tissue and the electrical response was measured and the normalized peak amplitudes were plotted over time over time.
FIG. 5 illustrates EOG traces from rat olfactory epithelium. Responses were induced by air odorants and a mixture of odorants and zinc metal particles. […]

[1] = test system: olfactory receptor neurons; test: Whole-cell patch-clamp recording of single olfactory neurons; assay type: cell-based, rat; conditions: FIG. 7
Source text: FIG. 6 illustrates electrophysiological recordings from a rat olfactory epithelium and a single olfactory neuron where the stimulus was a 0.5-s pulse of air or an odorant mixture. The odorant concentration was constant for all traces. […] Vapor of odorants were collected above the odorant solutions (in water) of concentrations shown. […] The stimulus was a 0.5 second pulse of odorant/zinc particle mixture. Downward direction indicates inward current.
FIG. 7 illustrates results from EGTA experiments and Zn^+2 ions experiments. […] It is widely known that EGTA binds multivalent metals. When Zn metal nanoparticles are bound by EGTA, the number of particles participating in olfactory signal transduction is reduced, and the odorant response is decreased. […] When the patch electrode is filled with a solution containing 500 pM EGTA, the odorant-evoked current changes markedly. Few minutes after beginning the perfusion, a progressive […] in the amplitude of the odorant triggered inward currents is noted.

SMILES: [Zn+2] [Zn^+2 ions, ZnCl2]
- odorant response by olfactory receptor neurons (rat olfactory epithelium): reduced

SMILES: O=C(O)CN(CCOCCOCCN(CC(=O)O)CC(=O)O)CC(=O)O [EGTA, ethylene glycol tetraacetic acid]
- effect on odorant response measured by patch-clamp ([1]; 500 pM perfused inside olfactory neurons): clearly inhibit odorant response
- dose dependence of the effect on odorant response ([1]; perfused inside olfactory neurons): dose dependent
